Data published in publication PMC13224100, “Esterase-Responsive Mitochondria-Targeted Hydropersulfide Donors Mitigate Doxorubicin Cardiotoxicity While Preserving Anticancer Activity” (Angewandte Chemie (International ed. in English), 2025).
Several values for one entry are separate records, joined by “and”; a condition that tells them apart may be missing. Equal values may be shown once.

Tests used:
[1] = system: porcine liver esterase (PLE); assay: Esterase-mediated RSSH release kinetics with HPE-IAM trapping (UPLC-MS); assay type: biochemical; conditions: precursor 25 μM, PLE 1 U mL^−1, HPE-IAM 250 μM, ammonium bicarbonate pH 7.4, DTPA, 37 °C; for half-life at 25 µM: pig, porcine liver esterase, read-out: t1/2 (min) Precursor consumption
Protocol: We then assessed esterase-mediated activation of AST-2 by incubating it with porcine liver esterase (PLE) in the presence of β-(4-hydroxyphenyl)ethyl iodoacetamide (HPE-IAM, 10 equiv), a trapping agent for RSSH.[39] We anticipated that PLE-catalyzed hydrolysis would release RSSH, which would subsequently be trapped by HPE-IAM to generate RSS-HPE-AM (Figure 1a). […] In addition, a minor amount of dialkyl trisulfide formation is observed (Figures 1b and S5), which we attribute to the reaction of the released RSSH with the precursor AST-2.
Figure 1. a) Schematic of esterase-mediated RSSH release from AST-2 in the presence of the trapping agent HPE-IAM. b) Representative UPLC-MS traces showing time-dependent conversion of AST-2 (25 μM) to RSS-HPE-AM upon treatment with porcine liver esterase (1 U mL^−1) and HPE-IAM (250 μM) in 100 mM ammonium bicarbonate buffer (pH 7.4) containing the metal chelator diethylenetriaminepentaacetic acid (DTPA) (100 μM) at 37 °C. Aliquots were quenched with formic acid and analyzed by UPLC-MS. […] Rate constants and half-lives are reported as mean ± SD (n = 3). Curves represent best fits to single-exponential functions.
Figure 2. a) Reaction scheme showing esterase-triggered RSSH release from APT-1 via a two-step activation involving deacetylation and intramolecular cyclization. b) Representative UPLC-MS traces showing the time-dependent conversion of APT-1 (25 μM) to intermediate 1 and subsequent formation of RSS-HPE-AM in the presence of PLE (1 U mL^−1) and HPE-IAM (250 μM) at 37 °C. Asterisk indicates a minor impurity in the blank control. […] Rate constants and half-lives are reported as mean ± SD (n = 3). Curves represent best fits to single exponential functions as described in the text.
B. Kinetics of RSSH Generation.
Kinetics of RSSH generation were conducted as previously described.[5] Stock solutions of RSSH […]
precursor (10 mM in DMSO), HPE-IAM (100mM in DMSO), and porcine liver esterase (PLE, 2000 U/mL in ammonium bicarbonate buffer) were freshly prepared. RSSH precursors (25 μM) were […]
then immediately incubated with HPE-IAM (250 μM) and PLE (1 U/mL, from Sigma-Aldrich, […]
E3019-20KU, ≥ 15 U/mg protein) in ammonium bicarbonate buffer (100 mM, pH 7.4) containing diethylenetriaminepentaacetic acid (DTPA, 100 μM) at 37 °C. At the indicated time points, 500 μL […]
aliquots were withdrawn, quenched with concentrated formic acid (5 μL, […]), and […]
ultracentrifuged at 12,500 rpm for 5 min. The resulting supernatants were diluted with acetonitrile […]
(200 μL supernatant + 300 μL of acetonitrile) and analyzed by UPLC–MS using a Waters Acquity […]
(MSe, 10 scans/s). Chromatographic separation was performed on a C18 reverse-phase column […]
(Waters Acquity BEH C18, 2.1 × 50 mm, 1.7 μm) at 4 °C, with a flow rate of 0.3 mL/min and the […]
following gradient (v/v; water containing 0.1% formic acid as solvent A, acetonitrile as solvent B):
B; 8.5–10 min, return to 100% A. The injection volume was 5 μL. Mass spectral data were […]
processed using MassLynx 4.1, and extracted ion chromatograms (EICs) corresponding to the […]
exact masses of the RSSH precursor, intermediate, and the trapped product (RSS–HPE-AM) […]
were integrated to quantify substrate consumption and product formation. Kinetic data were fitted […]
to a single exponential curve using Origin. All experiments were performed in triplicate (n = 3), […]
and results are reported as mean ± standard deviation (SD).
HRMS Data for Compounds Formed during RSSH Generation from AST-2 […]
Figure S2. HRMS of the peak eluting at 5.6 min corresponding to AST-2.
Esterase-mediated hydrolysis of AST-2-TPP monitored by UPLC-MS […]
Figure S11. (A) Representative UPLC-MS traces showing esterase-mediated hydrolysis of AST-2-TPP (25 […]
μM) in the presence of HPE-IAM (250 μM) in ammonium bicarbonate buffer (pH 7.4, 100 mM) containing […]
the metal chelator DTPA (100 μM) at 37 °C. […]

H9c2 cells = assay: Cytotoxicity of RSSH donors, CCK-8 assay; assay type: cell-based; conditions: up to 200 μM, 24 h
Protocol: We evaluated the cytoprotective effects of RSSH precursors against DOX-induced cardiotoxicity in H9c2 cardiomyoblasts. First, we assessed the cytotoxicity of the RSSH donors (AST-2, APT-1, AST-2-TPP, and APT-1-TPP) using the CCK-8 assay.[24] […] To evaluate cytoprotection, H9c2 cells were pretreated with RSSH donors for 4 h, followed by 24 h co-treatment with DOX (5 μM). As expected, DOX alone reduced cell viability to ca. 50% (Figure 4a). […] Although both compounds were protective, […]. […] A distinctive feature of our study is the direct comparison between mitochondria-targeted and non-targeted RSSH donors. […] TPP conjugation only modestly enhances the cytoprotective effects of RSSH donors under our experimental conditions. This outcome may reflect the intrinsic high efficacy of non-targeted RSSH donors, thereby limiting the additional benefit of mitochondrial targeting. […]
Cytotoxicity Assessment of Hydropersulfide Precursors in H9c2 and HepG2 cells Cell viability was measured using the Cell Counting Kit-8 (CCK-8, Dojindo).[7] H9c2 cardiomyoblast and HepG2 cells were seeded at a density of 8 × 10³ cells/well in a 96-well plate (flat-bottom, tissue culture-treated). […] All treatments were prepared with a final DMSO concentration of <0.01%. In the vehicle control group, cells were treated with medium (DMEM with 10% FBS) containing 0.01% DMSO only. Cells were incubated with RSSH donors for an additional 24 h. After 24 h, cells were gently washed three times with PBS, pH 7.4. […] The plates were then incubated for 1-2 h before measuring absorbance at 450 nm using a plate reader […]
calculated as: % Viability = 100 × [Abs₄₅₀ (treated cells) / Abs₄₅₀ (vehicle control)]. Each treatment condition was performed in 6 technical replicates per biological replicate, and the experiment was independently repeated three times (n = 3 biological replicates). Data are presented as mean ±
(1 picture or pasted object on this page, not shown here)
Figure S23. Impact of (A) AST-2 or AST-2-TPP (0-200 µM) and (B) APT-1 (0-200 µM) or APT -1-TPP (0-200 µM) on H9c2 cardiomyocytes. Impact of (C) AST-2 or AST-2-TPP (0-200 µM) and (D) APT-1 (0-200 µM) or APT-1-TPP (0-200 µM) on HepG2 (liver cancer) cells. Results are expressed as mean ± SEM, n≥3; *P<0.05, **P<0.01, ***P<0.001, ****P<0.0001. Ctl = vehicle (medium with 0.01% DMSO) treated cells. […]

half-life at 25 µM [1]	first-order rate constant k (k1) of precursor consumption / deacetylation [1]	first-order rate constant k (k2) of RSS-HPE-AM formation (RSSH release) [1]	SMILES	cytotoxicity of donor alone (H9c2 cells)
17.1 ± 0.4 min	0.0406 ± 0.0010 min⁻¹	0.0067 ± 0.0006 min⁻¹	COC(=O)C(NC(C)=O)C(C)(C)SSC(=O)N(C)CCOC(C)=O (stereo not shown) [APT-1]	no measurable toxicity
50.1 ± 1.8 min	0.0139 ± 0.0005 min⁻¹	0.0144 ± 0.0006 min⁻¹	COC(=O)SSC(C)(C)C(NC(C)=O)C(=O)OC (stereo not shown) [AST-2]	no measurable toxicity

SMILES	half-life at 25 µM [1]	first-order rate constant k (k1) of precursor consumption / deacetylation [1]	first-order rate constant k (k2) of RSS-HPE-AM formation (RSSH release) [1]	cytotoxicity of donor alone (H9c2 cells)
COC(=O)SSC(C)(C)C(NC(C)=O)C(=O)N(C)CCC[P+](c1ccccc1)(c1ccccc1)c1ccccc1 (stereo not shown) [AST-2-TPP]	20.7 ± 0.6 min	0.0335 ± 0.0010 min⁻¹	0.03467 ± 0.0028 min⁻¹ and 0.0347 ± 0.0028 min⁻¹	no measurable toxicity
CC(=O)NC(C(=O)N(C)CCC[P+](c1ccccc1)(c1ccccc1)c1ccccc1)C(C)(C)SSC(=O)N(C)CCOC(C)=O (stereo not shown) [APT-1-TPP]	5.2 ± 0.2 min	0.1338 ± 0.0049 min⁻¹ and 0.134 ± 0.005 min⁻¹	0.0056 ± 0.0004 min⁻¹	no measurable toxicity
